For one assay, the target named is T1, pRb (Homo sapiens, UniProt P06400).
T1 sequence (P06400 373-771 limits assumed): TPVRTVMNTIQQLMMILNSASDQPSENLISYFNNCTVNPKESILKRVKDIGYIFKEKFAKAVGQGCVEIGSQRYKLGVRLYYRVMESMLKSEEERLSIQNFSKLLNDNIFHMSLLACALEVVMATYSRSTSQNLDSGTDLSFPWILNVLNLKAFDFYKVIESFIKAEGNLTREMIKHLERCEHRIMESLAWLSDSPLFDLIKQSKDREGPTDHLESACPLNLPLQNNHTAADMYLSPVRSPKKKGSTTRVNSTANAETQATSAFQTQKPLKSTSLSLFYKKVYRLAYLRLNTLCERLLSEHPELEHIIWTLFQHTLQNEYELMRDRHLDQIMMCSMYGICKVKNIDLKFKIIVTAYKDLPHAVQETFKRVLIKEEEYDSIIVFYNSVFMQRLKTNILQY
Put plainly: Fluorescence polarization titration binding of fluoro-labelled peptides with pRb. From the text: Synthetic peptides were synthesised and fluoro-tagged using either N-terminal labelling with 5 carboxyfluorescein succinimidyl ester or cysteine labelling with single isomer tetramethylrhodamine-5-maleimide. […] Fluorescein fluorescence measured at λexcite=485 and λemit=520 nm
Rhodamine fluorescence measured at λexcite=545 and λemit=580 nm
Measurements were made using BMG Fluorostar plate reader fitted with polarization optic. […] Data were fitted to a one site binding model using Graphpad prism.
pRb titration curves were performed in 96-well black plates, in a total reaction volume of 100 μL. Doubling dilutions from 10 μM stock of pRb were made in binding buffer (50 mM Tris HCl, pH7.0, 100 mM NaCl, 10 mM DTT, 0.05% NP-40) and 80 μL added in triplicate to wells. 20 μL of 2 μM fluoro-peptide was added and pipetted up and down to mix. The plate was read after 1 hr incubation at room temperature.
On the technique in general: Polarisation of emitted light reports the rotation of a fluorescent probe.

The next assay concerns the target T2, pRb/Fl-E7 (Homo sapiens, UniProt P06400).
T2 sequence (P06400 373-771 limits assumed): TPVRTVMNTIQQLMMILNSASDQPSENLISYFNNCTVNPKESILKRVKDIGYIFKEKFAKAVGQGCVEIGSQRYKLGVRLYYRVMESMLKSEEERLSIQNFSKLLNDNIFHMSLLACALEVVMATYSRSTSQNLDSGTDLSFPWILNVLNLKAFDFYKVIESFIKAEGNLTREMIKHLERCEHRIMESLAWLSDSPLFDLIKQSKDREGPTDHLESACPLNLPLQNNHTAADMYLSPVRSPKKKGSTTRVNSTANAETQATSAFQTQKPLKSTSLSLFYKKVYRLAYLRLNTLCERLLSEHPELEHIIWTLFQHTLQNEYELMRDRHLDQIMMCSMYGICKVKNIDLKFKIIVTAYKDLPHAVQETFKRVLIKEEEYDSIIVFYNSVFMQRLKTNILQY
Kind of assay: Fluorescence polarization displacement binding, Fl-E7 bound to pRb. Particulars: fluoro-tagged peptide 400 nM pre-incubated with pRb 1 μM. The procedure: Fluoro-tagged peptide (400 nM) was pre-incubated with pRb (1 μM ) and unlabelled peptide added at the concentrations shown. Displacement binding curves were plotted (FIG. 4a), and were fitted to a one site competition binding model using Graphpad prism curve fitting software.

Assay [1] addresses T3, recombinant pRb A/B domains with E2F(409-426) peptide (Homo sapiens, UniProt P06400).
T3 sequence (P06400 373-771 limits assumed): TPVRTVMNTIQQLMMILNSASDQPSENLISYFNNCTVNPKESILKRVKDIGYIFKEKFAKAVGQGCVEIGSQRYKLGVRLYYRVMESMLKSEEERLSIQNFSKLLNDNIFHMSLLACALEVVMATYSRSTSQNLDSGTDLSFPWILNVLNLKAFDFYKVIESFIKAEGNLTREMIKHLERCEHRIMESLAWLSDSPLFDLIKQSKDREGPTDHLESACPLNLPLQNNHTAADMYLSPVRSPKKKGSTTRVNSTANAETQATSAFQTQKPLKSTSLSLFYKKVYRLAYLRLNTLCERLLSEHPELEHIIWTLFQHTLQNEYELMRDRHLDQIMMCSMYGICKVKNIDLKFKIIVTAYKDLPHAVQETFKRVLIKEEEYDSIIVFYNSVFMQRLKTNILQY
Put plainly: Fluorescence polarization screen (384-well), fluorescein-E2F with pRb, screen controls. The format is binding. Particulars: 1 μM pRb, 0.4 μM fluorescein-E2F. The source says:
Based on the crystal structure defined by the atomic co-ordinates in Annex 1, an FP screen was configured for the interaction of recombinant pRb A/B domains with E2F(409-426) peptide (see FIG. 1B). In addition, a second peptide binding site E7, see FIG. 1B), distant from the E2F binding pocket, was utilized as an internal control for non-specific inhibitors. Fluorophores in the form of fluorescein and rhodamine labelled peptides were synthesised and were used in a primary screen and hit confirmation.
The assay was optimised in 384-well black-plates (Matrix) and automated using a Beckman Fx liquid handling robot. 1 μM pRb in 50 mM Tris HCl, pH7.0, 100 mM NaCl, 10 mM DTT, 0.05% NP-40 was mixed with 40 μM compound (4% DMSO) and 0.4 μM fluorescein-E2F (final concentrations).
Polarized and depolarized signal from fluorescein-E2F with and without pRb present are shown in FIG. 5 (solid and open circles respectively). Specific disruption of binding by E2F protein and peptide are also shown. […] Addition of unlabelled-E2F at a concentration which gave 50% inhibition is clearly separated from the control populations. Hits were identified as compounds which reduced the polarization signal to less than mean-3sd of the fluorescein-E2F: pRb control.

This is an account of results in US20060234906A1, “Structure of a complex of retinoblastoma protein bound to e2f, and uses thereof” (priority 2002, published 2006).

Read-outs that look alike come from different tables or passages of the source. Residues, ends and D or L forms follow the SMILES beside them. *: point of attachment. 5FAM = O=C1OC2(c3ccc(O)cc3Oc3cc(O)ccc32)c2ccc(C(=O)*)cc21

Regarding `CC[C@H](C)[C@H](NC(=O)CNC(=O)[C@H](CCC(=O)O)NC(=O)CNC(=O)[C@H](CCC(=O)O)NC(=O)[C@H](CCC(=O)O)NC(=O)[C@H](CC(C)C)NC(=O)CNC(=O)[C@H](Cc1ccccc1)NC(=O)[C@H](Cc1c[nH]cn1)NC(=O)[C@H](Cc1ccc(O)cc1)NC(=O)[C@H](CC(=O)O)NC(=O)[C@H](CC(C)C)NC(=O)c1ccc2c(c1)C(=O)OC21c2ccc(O)cc2Oc2cc(O)ccc21)C(=O)N[C@@H](CCCNC(=N)N)C(=O)N[C@@H](CC(=O)O)C(=O)N[C@@H](CC(C)C)C(=O)N[C@@H](Cc1ccccc1)C(=O)N[C@@H](CC(=O)O)C(=O)O` [Fluorescein-E2F, N-terminal amide link-age 5 carboxyfluorescein-E2F409-426, 18′mer] (5FAM-LDYHFGLEEGEGIRDLFD-OH; C-terminus assumed), the Kd – broadly, the free concentration of one partner at which half of the binding sites on the other are occupied at equilibrium, for simple one-to-one binding – on pRb (pRb titration with fluoro-labelled peptide, one site binding model, read-out: Kd) worked out at 450 ± 70 nM. The “displacement of Fl-E7 from pRb” value on pRb/Fl-E7 is reported as “does not displace E7”.

Regarding `CC(C)C[C@H](NC(=O)[C@H](CCC(N)=O)NC(=O)[C@H](CCC(=O)O)NC(=O)[C@H](Cc1ccc(O)cc1)NC(=O)[C@H](CS)NC(=O)[C@H](Cc1ccc(O)cc1)NC(=O)[C@H](CC(C)C)NC(=O)[C@H](CC(=O)O)NC(=O)c1ccc2c(c1)C(=O)OC21c2ccc(O)cc2Oc2cc(O)ccc21)C(=O)N[C@@H](CC(N)=O)C(=O)O` [Fluorescein-E7, N-terminal amide linkage Scarboxyfluorescein-E7, nonomer] (5FAM-DLYCYEQLN-OH; C-terminus assumed), the Kd on pRb is 130 ± 20 nM.

B1: E2F protein: E2F protein added as screen control that specifically disrupts binding; probably E2F(243-437) (protein, UniProt Q01094 243-437, looked up, fragment)
chain: LAYVTCQDLRSIADPAEQMVMVIKAPPETQLQAVDSSENFQISLKSKQGPIDVFLCPEETVGGISPGKTPSQEVTSEEENRATDSATIVSPPPSSPPSSLTTDPSQSLLSLEQEPLLSRMGSLRAPVDEDRLSPLVAADSLLEHVREDFSGLLPEEFISLSPPHEALDYHFGLEEGEGIRDLFDCDFGDLTPLDF
Turning to B1, the “displacement of Fl-E2F from pRb (screen control)” value in assay [1] is recorded as “completely displaces F1-E2F”.
